Source: patent US12171876B2, “Cationic lipid compound, composition containing same and use thereof” (HANGZHOU TIANLONG PHARMACEUTICAL CO., LTD., priority 2022, dated 2024)

Key:
293T cells = assay: Cell survival rate assay (CCK-8); type: cell-based; conditions: 24 hours; for reduction in the cell survival rate compared with YK-009: LNP formulation of Fluc-mRNA
Protocol: Cell recovery and passage: 293T cells were recovered, cultured in a culture dish, and passaged to the required number of cells.
Seeding plate: The cells in the culture dish were digested and counted. Cells were spread in a 96-well plate at 10,000 cells per well and in a 12-well plate at 150,000 cells per well. Cells were cultured overnight until the cells adhered to the wall.
A LNP formulation containing 1.5 μg of Fluc-mRNA (the carrier component of the LNP formulation was cationic lipid, neutral lipid, structured lipid and polymer-conjugated lipid with a molar ratio of 50:10:38.5:1.5, wherein the cationic lipid was listed in Table 1) was added to the cell culture medium of a 96-well plate, and further cultivated for 24 hours. 10 μL of CCK-8 solution was then added to each well, and the culture plate was incubated in an incubator for 1 hour. The absorbance at 450 nm was measured by a microplate reader.
To compare the cytotoxicity of LNP formulations prepared from cationic lipid YK-009 and compound 25, we prepared LNP formulations with Fluc-mRNA contents of 1.5 μg, 1.125 μg, 0.75 μg and 0.375 μg (the carrier components of LNP formulations were cationic lipid, neutral lipid, structured lipid and polymer-conjugated lipid with a molar ratio of 50:10:38.5:1.5, wherein the cationic lipid was YK-009 or compound 25). The assay method of cell survival rate was the same as above.

[1] = Particle size and polydispersity index (PDI) of lipid nanoparticles by dynamic light scattering; type: physicochemical; conditions: LNP formulation of Example 4, cationic lipid/DSPC/cholesterol/DMG-PEG2000 50:10:38.5:1.5; 25° C., 90° scattering angle
Protocol: The particle size and polydispersity index (PDI) were determined by dynamic light scattering using Malvern laser particle size analyzer.
10 μL of the liposome solution was weighed, diluted to 1 mL with RNase-free deionized water, and added to the sample pool. Each sample was measured in triplicate. The measurement conditions were: 90° scattering angle, and 25° C.

female BALB/C mice = assay: Mouse live imaging test of LNP formulations of Fluc-mRNA; type: in vivo; conditions: for expression intensity of Fluc-mRNA in mice over time (in words): 3 h to 72 h after intramuscular injection
Protocol: A LNP formulation containing 10 μg of Fluc-mRNA was intramuscularly injected into female BALB/C mice aged 4-6 weeks and weighing 17-19 g, and at specific time points (3 h, 6 h, 24 h, 48 h and 72 h) after administration, mice were injected intraperitoneally with a fluorescent imaging substrate. The mice moved freely for 5 minutes, and then the average radiation intensity (corresponding to fluorescence expression intensity) of the protein expressed by the mRNA carried by LNP in mice was detected using the IVIS Spectrum small animal live imager.
To compare the protein expression and duration in mice of LNP formulations prepared from cationic lipid YK-009 and compound 25, we prepared LNP formulations with Fluc-mRNA contents of 10 μg, 7.5 μg, 5 μg and 2.5 μg (the carrier components of LNP formulations were cationic lipid, neutral lipid, structured lipid and polymer-conjugated lipid with a molar ratio of 50:10:38.5:1.5, wherein the cationic lipid was YK-009 or compound 25). The mouse live imaging test method was the same as above.

[2] = LNP formulation containing 1.5 μg of Fluc-mRNA
[3] = mRNA transfection, time not stated

Compound	Cell survival rate (%) (293T cells; [2])	PDI (%) [1] [%]	Particle size (nm) [1] [nm]	Cell survival rate (%) (293T cells; Fluc-mRNA content 0.375 μg)	Cell survival rate (%) (293T cells; Fluc-mRNA content 0.75 μg)	Cell survival rate (%) (293T cells; Fluc-mRNA content 1.125 μg)	Cell survival rate (%) (293T cells; Fluc-mRNA content 1.5 μg)	expression intensity of Fluc-mRNA in mice over time (in words) (female BALB/C mice)	expression in mice, times higher than that for MC3 (female BALB/C mice; [3])	expression in mice, times higher than that for compound 23 (female BALB/C mice; [3]) [times]	reduction in the cell survival rate compared with YK-009 (293T cells) [%]
CCCCCCCCCOC(=O)CCCN(CCO)CCCCCC(=O)OCC(CCCCCCCC)CCCCCCCC [YK-008, 2-octyldecyl 6-((4-(nonyloxy)-4-oxobutyl)(2-hydroxyethyl)amino)hexanoate]	91	24.4	205.00								
CCCCCCCCCCCOC(=O)CCCCCN(CCO)CCCCCCCC(=O)OC(CCCCCCCC)CCCCCCCC [Compound 25, reference compound]		23.1	117.10	99	97	95	91	decreased rapidly at 6˜48 h			
CCCCCCCCCCOC(=O)CCCN(CCO)CCCCC(=O)OCC(CCCCCCCC)CCCCCCCC [YK-006, 2-octyldecyl 5-((4-(decyloxy)-4-oxobutyl)(2-hydroxyethyl)amino)pentanoate]	96	22.9	125.35								
CCCCCCCCCCCOC(=O)CCCN(CCO)CCCCCC(=O)OCC(CCCCCCCC)CCCCCCCC [YK-001, 2-octyldecyl 6-((4-(undecyloxy)-4-oxobutyl) (2-hydroxyethyl)amino)hexanoate]	85	10.2	164.03								
CCCCCCCCCCOC(=O)CCCN(CCO)CCCCCCCC(=O)OC(CCCCCCCC)CCCCCCCC [YK-005, 9-heptadecyl 8-((4-(decyloxy)-4-oxobutyl)(2-hydroxyethyl)amino)octanoate]	88	17.3	148.75								
CCCCCCCCCCOC(=O)CCCN(CCO)CCCC(=O)OCC(CCCCCCCC)CCCCCCCC [YK-004, 2-octyldecyl 4-((4-(decyloxy)-4-oxobutyl)(2-hydroxyethyl)amino)butyrate]	87	9.7	190.65								
CCCCCCCCCCOC(=O)CCCCCN(CCO)CCCCCC(=O)OCC(CCCCCCCC)CCCCCCCC [YK-003, 2-octyldecyl 6-((6-(decyloxy)-6-oxohexyl)(2-hydroxyethyl)amino)hexanoate]	84	21.3	119.91					highest expression intensity	more than 18 times	> 8	
CCCCC/C=C\C/C=C\CCCCCCCCC(CCCCCCCC/C=C\C/C=C\CCCCC)OC(=O)CCCN(C)C [MC3, reference compound]	88	18.3	205.20					very low at each time			
CCCCCCCCCCOC(=O)CCCCN(CCO)CCCCCC(=O)OCC(CCCCCCCC)CCCCCCCC [YK-002, 2-octyldecyl 6-((5-(decyloxy)-5-oxopentyl)(2-hydroxyethyl)amino)hexanoate]	89	27.7	156.70								11
CCCCCCCCCOC(=O)CCCCCCCN(CCO)CCCCCC(=O)OC(CCCCCCCC)CCCCCCCC [Compound 27, nonyl 8-((2-hydroxyethyl)(6-((9-heptadecyl)oxy)-6-oxohexyl)amino)octanoate, reference compound]	84	13.6	178.85					decreased rapidly between 6 h and 48 h			16
CCCCCCCCCOC(=O)CCCCCCCN(CCO)CCCCCCCCCC(=O)OC(CCCCCCCC)CCCCCCCC [Compound 23, nonyl 8-((2-hydroxyethyl)(10-((9-heptadecyl)oxy)-10-oxodecyl)amino)octanoate, reference compound]	87	24.4	114.12					decreased rapidly between 6 h and 48 h			13
CCCCCCCCCCOC(=O)CCCN(CCO)CCCCCC(=O)OCC(CCCCCCC)CCCCCCC [YK-010, 2-heptylnonyl 6-((4-(decyloxy)-4-oxobutyl)(2-hydroxyethyl)amino)hexanoate]	77	19.8	124.46								23
CCCCCCCCCCCOC(=O)CCCCCN(CCO)CCCCCC(=O)OCC(CCCCCCCC)CCCCCCCC [YK-007, 2-octyldecyl 6-((2-hydroxyethyl)(6-oxo-6-(undecyloxy)hexyl)amino)hexanoate]	96	13.6	178.06								
CCCCCCCCCCOC(=O)CCCN(CCO)CCCCCC(=O)OCC(CCCCCC)CCCCCC [YK-011, 2-hexyloctyl 6-((4-(decyloxy)-4-oxobutyl)(2-hydroxyethyl)amino)hexanoate]	98	21.2	173.16								
